Laboratory results from PMC7261408 (Molecular pharmaceutics, 2017).
“Also recorded” adds a separate entry of the source. Like-named read-outs stand apart in the source and are kept apart here.

Tests used:
[1] = Peptide stability in PBS and cell growth medium with serum; assay type: in vitro ADME; details: PBS and cell growth medium (DMEM) complemented with fetal bovine serum, 37 °C, 5% CO2, 24 h monitoring; LC–MS
[2] = system: TZM-bl cells; experiment: MTT cell proliferation; details: for TI (toxicity index; ratio of cytotoxicity to neutralization IC50 values): MTT assay; for cellular cytotoxicity (in words): MTT cell proliferation assay; for cytotoxic at concentrations above: cellular cytotoxicity assays
[3] = system: HIV-1 BaL virions (gp120); experiment: HIV-1 virion capture assay with gp120-specific mAbs; assay type: binding; details: peptide 50 μM; sCD4–2D-treated HIV-1 BaL; captured p24 Gag by AlphaLISA
[4] = system: amphotropic pseudotyped murine leukemia virus; experiment: Neutralization of amphotropic pseudotyped murine leukemia virus; assay type: cell-based
[5] = system: vesicular stomatitis virus; assay type: cell-based
[6] = system: HIV-1 YU2 pseudotyped viral particles; details: read-out: IC50 YU2 (R5); TZM-bl cells; cited from earlier work
[7] = system: HIV-1 BaL26 (R5); details: read-out: IC50 BaL26 (R5); TZM-bl cells; cited from earlier work
[8] = system: HIV-1 HxB2 (X4); details: read-out: IC50 HxB2 (X4); cited from earlier work
[9] = system: HIV-1 NL4–3 (X4); details: read-out: IC50 NL4–3 (X4); cited from earlier work
[10] = system: TZM-bl cells; details: effects on host cell line TZM-bl; cited from earlier work
[11] = system: YU2 pseudotyped HIV virus; details: combination 2C:Nt, cited from earlier work
[12] = system: HIV-1 YU2 pseudotyped viral particles; details: neutralization assay

Ac-CSSYFPFSQYQWWK-NH2 [20-2]
glutathione (GST) adducts detected starting around [1]: around 30 min | TI (toxicity index; ratio of cytotoxicity to neutralization IC50 values) [2]: >250 µM | cellular cytotoxicity (in words) [2]: nontoxic at relevant concentrations

Ac-YSSYFPFSQYQWWK-NH2 [40-2]
inhibition of virion capture by mAb 19b [3]: effectively blocked virus capture | inhibition of virion capture by mAb 268-D [3]: effectively blocked virus capture | inhibition of virion capture by mAb 48d [3]: effectively blocked virus capture; also recorded: to a lesser extent | inhibition of virion capture by mAb B4e8 (V3 tip) [3]: neither 2C nor 40-2 blocked capture; also recorded: neither inhibited virion capture | inhibition of virion capture by mAb D19 (V3 tip) [3]: neither 2C nor 40-2 blocked capture; also recorded: neither inhibited virion capture | glutathione (GST) adduct formation (in words) [1]: never detected GST adducts | TI (toxicity index; ratio of cytotoxicity to neutralization IC50 values) [2]: >250 µM | cellular cytotoxicity (in words) [2]: nontoxic at relevant concentrations

Ac-CSSHFPFSQVQFWK-NH2 [16-6]
TI (toxicity index; ratio of cytotoxicity to neutralization IC50 values) [2]: >5 µM | cellular cytotoxicity (in words) [2]: cytotoxic

Ac-CSSYFPFSQYQFWK-NH2 [18-2]
TI (toxicity index; ratio of cytotoxicity to neutralization IC50 values) [2]: >63 to 125 µM | cytotoxic at concentrations above [2]: above 65 μM

Ac-CSSHFPYSQYQFWK-NH2 [2C, reference compound]
inhibition of virion capture by mAb 19b [3]: effectively blocked virus capture | inhibition of virion capture by mAb 268-D [3]: effectively blocked virus capture | inhibition of virion capture by mAb 48d [3]: effectively blocked virus capture; also recorded: to a lesser extent | inhibition of virion capture by mAb B4e8 (V3 tip) [3]: neither 2C nor 40-2 blocked capture; also recorded: neither inhibited virion capture | inhibition of virion capture by mAb D19 (V3 tip) [3]: neither 2C nor 40-2 blocked capture; also recorded: neither inhibited virion capture | glutathione (GST) adducts detected starting around [1]: around 30 min | activity toward amphotropic pseudotyped murine leukemia virus (in words) [4]: inactive | activity toward vesicular stomatitis virus (in words) [5]: inactive | IC50 [6]: 28 ± 7 µM | IC50 [7]: 65 ± 3 µM | IC50 [8]: 54 µM | IC50 [9]: 53 ± 2 µM | LC50 [10]: 190 µM | dose reduction index (DRI) ([11]; ratio 1:1): 2.1 ± 0.4 | dose reduction index (DRI) ([11]; ratio 1:2): 2.6 ± 0.5 | dose reduction index (DRI) ([11]; ratio 1:5): 4.9 ± 1.0

Ac-CSSHFPYSQFQFWK-NH2 [16-4]
TI (toxicity index; ratio of cytotoxicity to neutralization IC50 values) [2]: >100 µM | cellular cytotoxicity (in words) [2]: cytotoxic

Ac-CSSYFPWSQYQWWK-NH2 [30-2]
TI (toxicity index; ratio of cytotoxicity to neutralization IC50 values) [2]: >500 µM | cellular cytotoxicity (in words) [2]: nontoxic at relevant concentrations | LC50 ([2]; effects on host cell line TZM-bl, standard deviations averaged 20%, Non-toxic = nontoxic at 500 μM): Non-toxic^f

Ac-SSHFPFSQYQFWK-NH2 [12-2]
activity against R5-tropic strain YU2 (in words) [12]: modest gains in potency | TI (toxicity index; ratio of cytotoxicity to neutralization IC50 values) [2]: >500 µM

Ac-SSHFPFSQRQFWK-NH2 [14-1]
TI (toxicity index; ratio of cytotoxicity to neutralization IC50 values) [2]: >500 to 1000 µM

Ac-CSSYYPFSQYQWWK-NH2 [20-5]
cellular cytotoxicity (in words) [2]: nontoxic at relevant concentrations

Ac-SSHFPWSQVQFWK-NH2 [14-6]
activity against R5-tropic strain YU2 (in words) [12]: low activity | TI (toxicity index; ratio of cytotoxicity to neutralization IC50 values) [2]: >200 µM

Ac-SSHFPFSQVQFWK-NH2 [14-5]
activity against R5-tropic strain YU2 (in words) [12]: low activity | TI (toxicity index; ratio of cytotoxicity to neutralization IC50 values) [2]: >500 µM

Ac-CSSHFPWSQVQFWK-NH2 [16-7]
TI (toxicity index; ratio of cytotoxicity to neutralization IC50 values) [2]: >75 µM | cellular cytotoxicity (in words) [2]: cytotoxic

Ac-CSSHFPFSQYQFWK-NH2 [16-2]
TI (toxicity index; ratio of cytotoxicity to neutralization IC50 values) [2]: >63 to 250 µM | cytotoxic at concentrations above [2]: above 65 μM

Ac-SSHFPWSQRQFWK-NH2 [14-2]
TI (toxicity index; ratio of cytotoxicity to neutralization IC50 values) [2]: >500 to 1000 µM

Ac-SSHFPYSQYQFWK-NH2 [12-1]
TI (toxicity index; ratio of cytotoxicity to neutralization IC50 values) [2]: >500 to 1000 µM

Ac-SSHFPVSQYQFWK-NH2 [12-3]
activity against R5-tropic strain YU2 (in words) [12]: modest gains in potency | TI (toxicity index; ratio of cytotoxicity to neutralization IC50 values) [2]: >5 µM | cellular cytotoxicity (in words) [2]: cytotoxic

Ac-CSSHFPFSQFQFWK-NH2 [16-5]
TI (toxicity index; ratio of cytotoxicity to neutralization IC50 values) [2]: >50 µM | cellular cytotoxicity (in words) [2]: cytotoxic

Ac-SSHFPWSQYQFWK-NH2 [12-4]
activity against R5-tropic strain YU2 (in words) [12]: modest gains in potency | TI (toxicity index; ratio of cytotoxicity to neutralization IC50 values) [2]: >500 µM
